Values of other authors in patent US20160213673A1, “ENDURANCE FORMULATION AND USE” (priority 2015, published 2016).

Experiments:
[1] = exhausted rats
[2] = during the first 15 minutes of exercise
[3] = following 4 mg/kg caffeine consumption
[4] = test system: UCP3 mRNA expression in skeletal muscle; conditions: occurred within minutes of capsinoid ingestion
TRVP-1 = TRVP-1 (Homo sapiens, UniProt Q8NER1)
[5] = not given; remark: listed apart in the source
[6] = 3 mg of 9 mg of dihydrocapsiate per day for 28 days
[7] = following capsiate administration

Chain of TRVP-1 (Q8NER1 whole entry): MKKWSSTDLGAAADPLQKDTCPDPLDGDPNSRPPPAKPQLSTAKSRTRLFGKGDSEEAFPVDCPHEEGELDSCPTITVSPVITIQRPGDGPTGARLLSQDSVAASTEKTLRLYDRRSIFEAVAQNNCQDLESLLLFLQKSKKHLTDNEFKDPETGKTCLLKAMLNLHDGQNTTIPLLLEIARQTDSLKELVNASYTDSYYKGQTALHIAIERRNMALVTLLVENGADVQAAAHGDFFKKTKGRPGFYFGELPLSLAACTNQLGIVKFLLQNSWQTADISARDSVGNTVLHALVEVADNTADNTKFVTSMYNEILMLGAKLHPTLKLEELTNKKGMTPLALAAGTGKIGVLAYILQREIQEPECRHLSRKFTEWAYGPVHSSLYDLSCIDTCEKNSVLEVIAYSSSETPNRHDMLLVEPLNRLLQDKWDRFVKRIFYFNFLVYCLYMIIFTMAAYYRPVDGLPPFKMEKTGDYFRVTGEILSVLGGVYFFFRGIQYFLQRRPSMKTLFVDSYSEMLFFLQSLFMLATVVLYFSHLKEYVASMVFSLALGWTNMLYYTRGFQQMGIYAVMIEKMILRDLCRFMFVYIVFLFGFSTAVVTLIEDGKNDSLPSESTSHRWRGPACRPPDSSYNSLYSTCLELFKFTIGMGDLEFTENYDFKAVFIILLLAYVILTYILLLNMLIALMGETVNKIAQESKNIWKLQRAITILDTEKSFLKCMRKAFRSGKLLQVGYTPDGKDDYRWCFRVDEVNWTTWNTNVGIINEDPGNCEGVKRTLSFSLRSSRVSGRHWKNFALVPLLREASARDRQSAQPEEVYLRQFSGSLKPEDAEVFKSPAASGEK

SMILES: N=C(N)NCCC[C@H](N)C(=O)O [arginine]
- ammonia toxicity [1]: mitigate ammonia toxicity

SMILES: Cn1c(=O)c2c(ncn2C)n(C)c1=O [caffeine]
- decrease of glycogen utilization [2]: ≤ 50%
- plasma free fatty acids [3]: greater increase
- respiratory quotient (RQ) [3]: significantly lower
- arginase activity (arginase): inhibits arginase activity

SMILES: COc1cc(COC(=O)CCCC/C=C/C(C)C)ccc1O [capsiate]
- persistence of UCP3 mRNA expression in skeletal muscle [4]: 2 h
- residual glycogen in the gastrocnemius muscle (after 30 min of swimming): higher
- serum free fatty acid concentration (after 30 min of swimming): tended to be higher
- serum lactic acid concentration (after 30 min of swimming): significantly lower
- carbohydrate oxidation [7]: reduced
- fat oxidation [7]: significantly higher
- oxygen consumption (aerobic) [7]: significantly higher
- swimming time versus mice without capsiate (mice): significantly longer
- rates of TRVP-1 activation, capsiate compared with dihydrocapsiate (TRVP-1): similar
- ATP cost of twitch force generation ([5]; mouse, in vivo): reduced
- twitch force-generating capacity ([5]; mouse, in vivo): increased
- oxidative phosphorylation during rest ([5]; rest): not affected
- contribution of oxidative phosphorylation to total energy turnover ([5]; when exercising): increased
- glycolysis ([5]; when exercising): reduction

SMILES: NC(=O)NCCC[C@H](N)C(=O)O [citrulline]
- ammonia toxicity [1]: mitigate ammonia toxicity

SMILES: COc1cc(COC(=O)CCCCCCC(C)C)ccc1O [dihydrocapsiate]
- post prandial energy expenditure [6]: significant increase
- respiratory quotient (RQ) versus placebo group [6]: significantly lower
- rates of TRVP-1 activation, capsiate compared with dihydrocapsiate (TRVP-1): similar
